Test results from patent US8772235B2, “Compounds having peptides conjugated to bone targeting moieties and methods of making and using thereof” (The Governors of the University of Alberta, priority 2009, dated 2014).

What was measured:
[1] = Bone mineral specificity: calcium pyrophosphate binding assay; conditions: 1 h, 100 mM phosphate buffer pH 7
Description: (§1) Bone targeting potential of sCT analogue was evaluated by determining the effect of sCT modification (due to chemical coupling) upon its bone mineral affinity. Specific volume of purified sCT analogue solution containing 10 μg of sCT was mixed with 1 mg Hydroxyapatite (HA) in 150 μL 100 mM phosphate buffer (pH 7.0) in microcentrifuge tubes in duplicate to give a final concentration of 66.67 μg/ml sCT. As a reference, control samples were incubated in tubes without HA (i.e., 0% of binding).
(§2) The tubes were incubated at room temperature on a shaker for 1 h, and centrifuged at 5000 g for 5 minutes to separate the HA from the supernatant. sCT concentration in the supernatant was determined using the BCA microprotein assay (Pierce, USA) as described above. HA centrifugate remaining after removal of supernatant was washed five times using 1 mL buffer each time and the last washing after centrifugation at 5000 g for 5 minutes was collected. Both the washings and the HA centrifugate were then analyzed for sCT as described above. The amount of sCT in the supernatant, washings and HA centrifugate was then inferred by measuring the absorbance at 562 nm, with a value of 100% for control samples without HA.
(§3) Bone mineral specificity of sCT analogue was then determined in the above manner using HA, calcium carbonate, calcium pyrophosphate, tricalcium phosphate and calcium oxalate.

[2] = target: serum albumin (Homo sapiens, UniProt P02768); conditions: systemically administered; cited from earlier work
[3] = Effect on plasma phosphate level in normal rats (PEG series); assay type: in vivo, rat; conditions: 20 IU sCT/kg equivalent, subcutaneous
Description: (§4) Pharmacodynamic response of sCT analogue was evaluated by analyzing plasma calcium concentration in the rat model. Sprague Dawley female rats weighing 230-260 g (about 6 weeks old) were purchased from Charles River, USA and housed at the University of Alberta Animal Holding Unit. All experimental protocols were approved by the Animals Ethics Committee of the University of Alberta. The rats were divided randomly into five groups of 3 animals each and the pharmacodynamic response was assessed following subcutaneous administration of the sCT or analogue equivalent to 20 IU sCT/kg body weight. Rats were anesthetized using Isoflurane inhalation anesthesia and the 200 μl blood samples were obtained in heparinized Eppendorf microtubes before drug injection. Then 100 μl of sCT or equivalent dose in 20 mM Sodium Acetate buffer pH 5 was injected and the blood samples were collected 1, 2, 3 and 4 hrs post injection from jugular vein. Blood plasma was obtained by centrifuging the samples at 5000 rpm for 10 min and collecting the supernatant. Plasma calcium level was assayed by QuantiChrom™ Calcium Assay Kit (BioAssay Systems, CA USA) and the plasma phosphate level was assayed by QuantiChrom™ Phosphate Assay Kit (BioAssay Systems, CA USA).

[4] = Bone mineral specificity: calcium oxalate binding assay; conditions: 1 h, 100 mM phosphate buffer pH 7
Description: as §1, §2, §3

[5] = ELISA: anti-calcitonin antibody epitope binding on calcium phosphate coated plate (PEG series); conditions: 1 μg/well, OD 650 nm
Description: sCT or sCT analogues equivalent to 1 μg/well were added in Calcium Phosphate coated Osteoclast Activity Assay Substrate plate (OCT USA, Inc.) in duplicate and the binding of BP to the calcium phosphate was allowed for 1 hours in the presence of 100 μl 100 mM Sodium Phosphate buffer pH 7. Plates were then washed three times with the same buffer containing 0.05% v/v Tween 80 (PBST). To avoid nonspecific binding, the wells were incubated with 3% w/v Bovine Serum Albumin for 1 h at room temperature. After washings, the wells were incubated with […] of 1:5000 diluted rabbit anti-salmon calcitonin primary monoclonal antibodies (US Biologicals, USA) for 1 h at room temperature. The wells were then washed three times with PBST and the bound antibodies were detected using secondary antibody, 1:5000 diluted goat anti-rabbit IgG conjugated with horseradish peroxidase (GAM-HRPO) for 1 h at room temperature. After final washings, 100 μl of 3,3′,5,5′-tetramethylbenzidine (TMB substrate) was added to each well and incubated for 15 min at room temperature. The optical density (OD) was measured at 650 nm using an ELISA Vmax kinetic microplate reader (Molecular Devices Corp., California, and USA).

[6] = system: RAW 264.7 cells; experiment: MTT cytotoxicity on osteoclast precursor RAW 264.7 cells (SMCC series); assay type: cell-based; conditions: 100, 500 and 1000 nM sCT or equivalent, 4 hrs
Description: RAW 264.7 cells (ATCC VA, USA) were seeded on 96 well plates at an initial density of 2×10^4 cells/well and incubated in 200 μl GIBCO High Glucose 1× Dulbecco's Modified Eagle Medium (DMEM) (Invitrogen CA, USA) supplemented with 4.5 g/L D-Glucose, L-Glutamine, 110 mg/L Sodium Pyruvate, 10% heat inactivated fetal bovine serum (FBS) and 1% Penicillin-Streptomycin (10000 U/mL; Invitrogen) in a Thermo Fisher Scientific Water Jacketed CO2 incubator (37° C., 5% CO2).
After 72 hrs, media was replaced by 200 μl basic DMEM media without FBS and incubated for 30 minutes. […] After removing the supernatant and washing twice with phosphate buffer saline, purple formazan crystals formed were dissolved in 200 μl solubilization solution (in vitro toxicology assay kit, # TOX-1, Sigma Aldrich, St. Louis, USA) and the absorbance was measured at 570 nm using microplate reader. Experiment was performed for n=8 and the absorbance of wells containing cells without sCT treatment was considered as 100% viable and used to calculate the relative viability of sCT treated cells.
In MTT assay, mitochondrial dehydrogenases of viable cells cleave the tetrazolium ring of MTT yielding purple formazan crystals which are insoluble in aqueous solutions. They were dissolved in acidified isopropanol and the resulting purple solution was measured spectrophotometrically. […]

[7] = Effect on plasma calcium level in normal rats (PEG series); assay type: in vivo, rat; conditions: 20 IU sCT/kg equivalent, subcutaneous
Description: as §4

[8] = Hydroxyapatite (HA) binding assay, bone mineral affinity; conditions: 10 μg sCT, 1 mg HA, 1 h, 100 mM phosphate buffer pH 7.0
Description: as §1, §2

[9] = first hour, vs acetate buffer controls

Salmon calcitonin [sCT, reference compound]
sCT recovered in supernatant after incubation with Calcium Pyrophosphate [1]: did not significantly reduce the sCT concentration in the supernatant | serum albumin bound in circulation [2]: 40% | percentage of plasma phosphate reduction ([3]; 4 hour post dosing): 15.7±3.7% | percentage of plasma phosphate reduction [3, 9]: 22.1±6.24% | percentage of plasma phosphate reduction ([3]; second hour): 22.7±13.01% | sCT recovered in supernatant after incubation with Calcium oxalate [4]: did not significantly reduce the sCT concentration in the supernatant | detection in ELISA after binding to calcium phosphate plate [5]: not significantly detected | cytotoxicity (absorbance of formazan solution) compared to untreated media [6]: low levels of cytotoxicity | percentage of plasma calcium reduction ([7]; 4 hour post dosing): 33.1±2.1% | percentage of plasma calcium reduction [7, 9]: 20.4±5.5% | percentage of plasma calcium reduction ([7]; second hour): 29.9±4.9% | sCT bound in HA [8]: did not significantly bind to HA
